The source of these data is patent publication US10137102B2, “Oligomeric forms of 3-hydroxybutyrate” (Oulun Yliopisto, priority 2014, dated 2018).

Assay [1] is described as follows: HOSC assay (fluorometric .OH scavenging capacity assay). The conditions noted are these: for hydroxyl radical scavenging activity (in words) / .OH scavengers, times better than ascorbic acid / .OH scavengers, times better than glutathione: FIG. 1; for hydroxyl radical scavenging activity (in words): compared with L-ascorbic acid, L-glutathione and 3-hydroxybutyric acid; for .OH scavengers, times better than ascorbic acid / .OH scavengers, times better than glutathione: HOSC assay under Fenton's reaction, against Trolox; for .OH scavengers, times better than ascorbic acid: comparator ascorbic acid; for .OH scavengers, times better than glutathione: comparator glutathione; for scavenging capacity, times better compared to 3-HB monomer, 3-hydroxybutyric acid (3-HBA): HOSC assay, comparator commercial 3-HBA. The assay is classed as biochemical. The procedure:
HOSC Assay (Fluorometric .OH Scavenging Capacity Assay)
Assay reactions were prepared according to Moore et al. (2006) and analyzed in black 96-well polystyrene plates (FluoroNunc, Thermo Scientific) with a Victor3 multilabel plate reader (PerkinElmer, Turku, Finland). Each reaction mixture contained 170 μl of 9.28×10^−8 M fluorescein (FL) prepared in 75 mM sodium phosphate buffer (pH 7.4), 30 μl of blank or sample or standard, 40 μl of 0.1990 M H2O2, and 60 μl of 3.43 mM FeCl3, pipetted to the 96-well plate in same order. Trolox standards (20, 40, 60, 80, and 100 μM), control solutions of glutathione, vitamin C, 3-HB monomer (3-hydroxybutyric acid, 3-HBA) (Sigma-Aldrich, St. Louis, Mo.), and the 3-HB oligomer samples were freshly prepared in 50% acetone for each assay. Each reaction was pipetted onto the 96-well plate in triplicate. Fluorescence was measured at the excitation wavelength of 485 nm and the emission wavelength of 535 nm. Read time for each well was 0.1 s, and each plate was read once per minute for 3 h. Based on the area under the curve (AUC) of the Trolox concentrations and the net area under the fluorescein decay curve (Ou et al. 2001), the relative HOSC values were calculated by using the regression equation for the pure compounds. Values were expressed as Trolox equivalents (TE), where one micromole of TE corresponds to one micromole of sample. The experiment was repeated three times.
Calculation of Area Under Curve (AUC) Values: AUC=0.5+f1/f0+f2/f0+f3/f0+ . . . +fi−1/f0+0.5(fi/f0) f0=the initial fluorescence reading at 0 min fi=the final fluorescence reading Calculation of Relative HOSC Values for Pure Compounds: [(AUCsample−AUCblank)/(AUCTrolox−AUCblank)]×(Molarity of Trolox/Molarity of sample)] Iron-Catalyzed Hydroxyl Radical Formation by Haber-Weiss Driven Fenton Reaction (Liochev 1999, Kehrer 2000): Fe^3++O.^2−→Fe^2++O2 (1) Fe^2++H2O2→Fe^3++OH^−+OH.(Fenton reaction) (2)
The Net Reaction: O.^2−+H2O2→O2+OH^−+OH. (3)
Fluorometric .OH scavenging capacity (HOSC) assays for 3-HB mono-, di- and trimers (molecules of general formula 1, wherein n is 1 and 2, respectively), along with glutathione and ascorbic acid was performed. […] Oligomers of 3-HB having a chain length longer than four units had low antioxidant activity.

Another assay concerns Shoot tips of Scots pine. Description: Viability assay on pine shoot tips. The assay is classed as cell-based, Pinus sylvestris L. The settings on record: FIG. 3; medium including molecules (1) and (2); after five weeks; control shoot tip dead. The procedure:
Viability Assay on Pine Shoot Tips Shoot tips (n=9-13) of Scots pine (Pinus sylvestris L.) were collected from young (>10 years) trees and surface-sterilized in 70% ethanol for 1 min and in 6% Ca(ClO)2 for 20 min, and rinsed thoroughly three times with sterile water. After rinsing in sterile water, the shoot tips (buds) were aseptically peeled in a laminar flow hood and placed on the media. The pine shoot tips were grown in 8/16 h photoperiod at +25±1° C. in the presence and absence of molecules of general formula I, wherein n is from 2 to 10. The viability of the pine tissue was assessed for up to 6 weeks visually (FIG. 3) and by 1% (w/v) acetocarmine staining. The viability on each fraction was recorded as percentage of live buds. The experiment was twice with each oligomer (mono- to decamer) on each Petri plate containing 18-31 pine shoot tips.

For assay [2], the system named is yeast GSH pathway deletion mutants gsh1Δ and gsh2Δ. In kind it is cell-based, S. cerevisiae. The settings on record: FIG. 2, 2.5 mM H2O2, 65 μM FeCl3.
Procedure: Yeast strains (gsh1Δ (YJL101c) and gsh2Δ (YOL049w); EUROSCARF) were streaked from glycerol stocks onto YEPD agar plates (1% w/v Bacto yeast extract; 2% w/v Bacto peptone; 2% w/v D-glucose; 2% w/v agar) and incubated at +30° C. for 48 h. Yeast pre-cultures were inoculated from the plates and grown in liquid SG minimal medium (0.67% w/v yeast nitrogen base without amino acids; 2% w/v glucose with appropriate supplements: uracil, 0.02 mg/ml; amino acids, 0.03 mg/ml) at +30° C. in orbital shaker with 180 rpm to stationary phase (1.0-1.2 OD600). Growth was measured spectrophotometrically at 600 nm (OD600) and the cell densities were adjusted to 1.0 OD600 before inoculation of the final density of 0.25 OD600 into each assay reaction.
To validate the alleviation of oxidative stress in living cells and to identify the cellular target proteins for hydroxyl radical scavenging in eukaryotic cells, a yeast deletion mutant bioassay was developed on the basis of HOSC assay (Moore et al. 2006). Hydroxyl radicals were generated under physiological pH (7.4) in Fenton-like Fe^3+/H2O2 reaction. The original assay settings were adjusted for yeast cells in phosphate buffered SG medium, and the pH and O2 levels were monitored by SENBIT® system (Vasala et al. 2006). The concentration of hydrogen peroxide was optimized to a sub-lethal level (2.5 mM) and the reaction was supplemented with appropriate amount of FeCl3 (0.0646 mM) to produce a constant flux of .OH radicals.
The total reaction volume was down-scaled to 1 ml, which made the assay suitable for the natural products low in quantity. […]
All treatments were pipetted in triplicate, and the experiment was repeated three times. Cell growth was monitored at +30° C. for 72 hours and Petri plates were scanned digitally to high-quality computer images after 48 and 72 hours. Hydroxyl radical-induced stress and the alleviation of stress by antioxidant compounds in various deletion mutant strains of S. cerevisiae were evaluated visually.

Molecules are shown by their SMILES.

In the case of `COC(=O)CC(C)OC(=O)CC(C)O` (centres unmarked) [Compound 1, 3-hydroxybutyrate methyl ester dimer], in assay [1], the “hydroxyl radical scavenging activity (in words)” value is given as “significantly better”; the “.OH scavengers, times better than ascorbic acid” value turned out to be 10 times; the “.OH scavengers, times better than glutathione” value is 3 times; the “scavenging capacity, times better compared to 3-HB monomer, 3-hydroxybutyric acid (3-HBA)” value was 10 times. For the same molecule, in assay [1] (compared with 3-hydroxybutyric acid or ascorbic acid), the “antioxidant capacity against hydroxyl radicals (in words)” value is “more than tenfold higher”. In the assay on Shoot tips of Scots pine, the “state of Scots pine shoot tip (in words)” value is “alive”. Further, in assay [2], the “reversal of hypersensitivity of yeast mutants to hydroxyl radical stress (in words)” value (“reversal” for short) was “reversal of hypersensitivity”.
Consider `N[C@@H](CCC(=O)N[C@@H](CS)C(=O)NCC(=O)O)C(=O)O` [glutathione, reference compound], for which, in assay [2], the “reversal” value is given as “reversal of hypersensitivity”.
`COC(=O)CC(C)OC(=O)CC(C)OC(=O)CC(C)O` (centres unmarked) [Compound 2]: in assay [1], the “hydroxyl radical scavenging activity (in words)” value is recorded as “significantly better”; the “.OH scavengers, times better than ascorbic acid” value is 10 times; the “.OH scavengers, times better than glutathione” value was 3 times; the “scavenging capacity, times better compared to 3-HB monomer, 3-hydroxybutyric acid (3-HBA)” value stood at 10 times. The “state of Scots pine shoot tip (in words)” value in the assay with Shoot tips of Scots pine is “alive”. In addition, the “reversal” value in assay [2] is given as “reversal of hypersensitivity”.
